Molecular target: T1, his-galectin-3 (Homo sapiens, UniProt P17931)
T1 construct: purchased Abcam
Assay: TR-FRET assay (in vitro galectin-3 binding inhibitory activity test)
Conditions: Table 1; compound at 20 μM; 60 nM his-galectin-3, 15 nM biotin-ASF
How it was run: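 Compound is premixed with his-galectin-3 (60 nM final), then biotin-ASF (15 nM), Tb anti-His antibody (2 nM) and streptavidin-d2 (20 nM) are added. After at least 3.5 hours at RT in HEPES/NaCl buffer with Tween 20 and BSA, TR-FRET is read at 615/665 nm. DMSO serves as the uninhibited control, ASF omission as background.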

T1 sequence (P17931 whole entry): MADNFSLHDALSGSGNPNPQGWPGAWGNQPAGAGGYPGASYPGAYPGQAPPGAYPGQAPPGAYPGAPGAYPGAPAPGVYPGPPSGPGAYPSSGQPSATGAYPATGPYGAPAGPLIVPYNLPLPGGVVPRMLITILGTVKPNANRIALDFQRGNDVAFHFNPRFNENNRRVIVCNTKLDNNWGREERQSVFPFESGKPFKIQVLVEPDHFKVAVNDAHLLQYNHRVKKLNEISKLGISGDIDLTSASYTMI

For O=C1CCCC2(O[C@H](CO)[C@H](O)[C@H](n3cc(-c4cc(F)c(F)c(F)c4)nn3)[C@H]2O)N1CC(F)F (stereo partly drawn) [Compound A94, (2R,3R,4S,5R)-7-(2,2-difluoroethyl)-3.5-dihydroxy-2-(hydroxymethyl)-4-(4-(3,4,5-trifluorophenyl)-1H-1,2,3-triazol-1-yl)-1-oxa-7-azaspiro[5.5]undecan-8-one], the “% Inhibitory activity (at 20 μM)” value was “D (inhibition rate was less than 25%)”.

Same assay, conditions: Table 1; compound at 20 μM; 60 nM his-galectin-3, 15 nM biotin-ASF; read-out: % Inhibitory activity (at 20 μM)

First: OC[C@H]1O[C@@]2(CCCO2)[C@H](OCc2cccc(F)c2)[C@@H](n2cc(-c3cc(F)c(F)c(F)c3)nn2)[C@H]1O [Compound A91, (5S,7R,8R,9S,10R)-10-((3-fluorobenzyl)oxy)-7-(hydroxymethyl)-9-(4-(3,4,5-trifluorophenyl)-1H-1,2,3-triazol-1-yl)-1,6-dioxaspiro[4.5]decan-8-ol]
Second: O=C(O[C@@H]1[C@@H](n2cc(-c3cc(F)c(F)c(F)c3)nn2)[C@@H](O)[C@@H](CO)O[C@@]12CCCO2)c1cc(F)cc(F)c1 [Compound A92, (5S,7R,8R,9S,10R)-8-hydroxy-7-(hydroxymethyl)-9-(4-(3,4,5-trifluorophenyl)-1H-1,2,3-triazol-1-yl)-1,6-dioxaspiro[4.5]decan-10-yl 3,5-difluorobenzoate]
The inhibition at 20 µM of the first is lower: less than 25% for the first, 25 to 50% for the second.

First: O=C1CCCC2(N1)O[C@H](CO)[C@H](O)[C@H](n1cc(-c3cc(F)c(F)c(F)c3)nn1)[C@H]2OCc1ccccc1 (stereo partly drawn) [Compound A93, (2R,3R,4S,5R)-5-(benzyloxy)-3-hydroxy-2-(hydroxymethyl)-4-(4-(3,4,5-trifluorophenyl)-1H-1,2,3-triazol-1-yl)-1-oxa-7-azaspiro[5.5]undecan-8-one]
Second: OC[C@H]1OC2(CCCC2)[C@H](O)[C@@H](n2cc(-c3cc(F)c(F)c(F)c3)nn2)[C@H]1O [Compound A101, (7R,8R,9S,10R)-7-(hydroxymethyl)-9-(4-(3,4,5-trifluorophenyl)-1H-1,2,3-triazol-1-yl)-6-oxaspiro[4.5]decane-8,10-diol]
The inhibition at 20 µM of the first is lower: less than 25% for the first, 25 to 50% for the second.

First: O=C1CCCC2(O[C@H](CO)[C@H](O)[C@H](n3cc(-c4cc(F)c(F)c(F)c4)nn3)[C@H]2O)N1CC1CCS(=O)(=O)CC1 (stereo partly drawn) [Compound A95, (2R,3R,4S,5R)-7-((1,1-dioxidotetrahydro-2H-thiopyran-4-yl)methyl)-3,5-dihydroxy-2-(hydroxymethyl)-4-(4-(3,4,5-trifluorophenyl)-1H-1,2,3-triazol-1-yl)-1-oxa-7-azaspiro[5.5]undecan-8-one]
Second: OC[C@H]1O[C@]2(CCCO2)[C@H](O)[C@@H](n2cc(-c3cc(F)c(F)c(F)c3)nn2)[C@H]1O [Compound A100, (5R,7R,8R,9S,10R)-7-(hydroxymethyl)-9-(4-(3,4,5-trifluorophenyl)-1H-1,2,3-triazol-1-yl)-1,6-dioxaspiro[4.5]decane-8,10-diol]
The inhibition at 20 µM of the first is lower: less than 25% for the first, 25 to 50% for the second.

First: OC[C@H]1O[C@]2(OCC[C@H]2NCc2cccc(C(F)(F)F)c2)[C@H](O)[C@@H](n2cc(-c3cc(F)c(F)c(F)c3)nn2)[C@H]1O [Compound A96, (4R,5S,7R,8R,9S,10R)-7-(hydroxymethyl)-4-((3-(trifluoromethyl)benzyl)amino)-9-(4-(3,4,5-trifluorophenyl)-1H-1,2,3-triazol-1-yl)-1,6-dioxaspiro[4.5]decane-8,10-diol]
Second: OC[C@H]1O[C@]2(OCC[C@H]2NCc2cccc(Br)c2)[C@H](O)[C@@H](n2cc(-c3cc(F)c(F)c(F)c3)nn2)[C@H]1O [Compound A102, (4R,5S,7R,8R,9S,10R)-4-((3-bromobenzyl)amino)-7-(hydroxymethyl)-9-(4-(3,4,5-trifluorophenyl)-1H-1,2,3-triazol-1-yl)-1,6-dioxaspiro[4.5]decane-8,10-diol]
The inhibition at 20 µM of the first is lower: less than 25% for the first, 25 to 50% for the second.

OC[C@H]1O[C@]2(OCC[C@H]2NCc2ccc(Cl)cc2)[C@H](O)[C@@H](n2cc(-c3cc(F)c(F)c(F)c3)nn2)[C@H]1O [Compound A97, (4R,5S,7R,8R,9S,10R)-4-((4-chlorobenzyl)amino)-7-(hydroxymethyl)-9-(4-(3,4,5-trifluorophenyl)-1H-1,2,3-triazol-1-yl)-1,6-dioxaspiro[4.5]decane-8,10-diol] and OC[C@H]1O[C@]2(OCC[C@H]2NCc2ccccn2)[C@H](O)[C@@H](n2cc(-c3cc(F)c(F)c(F)c3)nn2)[C@H]1O [Compound A98, (4R,5S,7R,8R,9S,10R)-7-(hydroxymethyl)-4-((pyridin-2-ylmethyl)amino)-9-(4-(3,4,5-trifluorophenyl)-1H-1,2,3-triazol-1-yl)-1,6-dioxaspiro[4.5]decane-8,10-diol] cannot be ordered by inhibition at 20 µM: less than 25% for the first, less than 25% for the second.

CN(Cc1cccc(Cl)c1)[C@@H]1CCO[C@]12O[C@H](CO)[C@H](O)[C@H](n1cc(-c3cc(F)c(F)c(F)c3)nn1)[C@H]2O [Compound A103, (4R,5S,7R,8R,9S,10R)-4-((3-chlorobenzyl)(methyl)amino)-7-(hydroxymethyl)-9-(4-(3,4,5-trifluorophenyl)-1H-1,2,3-triazol-1-yl)-1,6-dioxaspiro[4.5]decane-8,10-diol] and OC[C@H]1O[C@]2(OCC[C@H]2NCC2CCCC2)[C@H](O)[C@@H](n2cc(-c3cc(F)c(F)c(F)c3)nn2)[C@H]1O [Compound A104, (4R,5S,7R,8R,9S,10R)-4-((cyclopentylmethyl)amino)-7-(hydroxymethyl)-9-(4-(3,4,5-trifluorophenyl)-1H-1,2,3-triazol-1-yl)-1,6-dioxaspiro[4.5]decane-8,10-diol] cannot be ordered by inhibition at 20 µM: less than 25% for the first, less than 25% for the second.

O=C(N[C@@H]1CCO[C@]12O[C@H](CO)[C@H](O)[C@H](n1cc(-c3cc(F)c(F)c(F)c3)nn1)[C@H]2O)C1CCCC1 [Compound A107, N-((4R,5S,7R,8R,9S,10R)-8,10-dihydroxy-7-(hydroxymethyl)-9-(4-(3,4,5-trifluorophenyl)-1H-1,2,3-triazol-1-yl)-1,6-dioxaspiro[4.5]decan-4-yl)cyclopentancarboxamide] and O=C(CC1CCCC1)N[C@@H]1CCO[C@]12O[C@H](CO)[C@H](O)[C@H](n1cc(-c3cc(F)c(F)c(F)c3)nn1)[C@H]2O [Compound A108, 2-cyclopentyl-N-((4R,5S,7R,8R,9S,10R)-8,10-dihydroxy-7-(hydroxymethyl)-9-(4-(3,4,5-trifluorophenyl)-1H-1,2,3-triazol-1-yl)-1,6-dioxaspiro[4.5]decan-4-yl)acetamide] fall in the same range of inhibition at 20 µM: 25 to 50% for the first, 25 to 50% for the second.

Same assay, conditions: Table 3, found values; compound at 20 μM; 60 nM his-galectin-3, 15 nM biotin-ASF; read-out: % Inhibitory activity (at 20 μM)

Molecule OC[C@H]1O[C@]2(CCCO2)[C@H](O)[C@@H](n2cc(-c3cc(F)c(F)c(F)c3)nn2)[C@H]1O [Compound A100, (5R,7R,8R,9S,10R)-7-(hydroxymethyl)-9-(4-(3,4,5-trifluorophenyl)-1H-1,2,3-triazol-1-yl)-1,6-dioxaspiro[4.5]decane-8,10-diol] has an inhibition at 20 µM of 48.1%.

Same assay, conditions: read-out: % Inhibitory activity (at 20 μM), Table 1; compound at 20 μM; 60 nM his-galectin-3, 15 nM biotin-ASF

First: OC[C@H]1O[C@]2(OCC[C@H]2NCc2ccccc2)[C@H](O)[C@@H](n2cc(-c3cc(F)c(F)c(F)c3)nn2)[C@H]1O [Compound A105, (4R,5S,7R,8R,9S,10R)-4-(benzylamino)-7-(hydroxymethyl)-9-(4-(3,4,5-trifluorophenyl)-1H-1,2,3-triazol-1-yl)-1,6-dioxaspiro[4.5]decane-8,10-diol]
Second: O=C(Cc1cccc(Cl)c1)N[C@@H]1CCO[C@]12O[C@H](CO)[C@H](O)[C@H](n1cc(-c3cc(F)c(F)c(F)c3)nn1)[C@H]2O [Compound A106, 2-(3-chlorophenyl)-N-((4R,5S,7R,8R,9S,10R)-8,10-dihydroxy-7-(hydroxymethyl)-9-(4-(3,4,5-trifluorophenyl)-1H-1,2,3-triazol-1-yl)-1,6-dioxaspiro[4.5]decan-4-yl)acetamide]
The inhibition at 20 µM of the first is lower: less than 25% for the first, 50 to 75% for the second.
